From ChEMBL document CHEMBL5543083, “3,5-Disubstituted-thiazolidine-2,4-dione hybrids as antidiabetic agents: Design, synthesis, in-vitro and In vivo evaluation” (Eur J Med Chem, 2024)
Converted amounts (≈) assume the structure as drawn.

Assays:
Alpha-amylase = target: T1, Alpha-amylase (Sus scrofa domesticus, UniProt Q7M328); assay: Inhibition of porcine pancreatic Alpha-amylase using starch as substrate preincubated for 10 mins followed by substrate addition and measured after 15 mins by Bio-rad microplate reader analysis; conditions: read-out: IC50
T1 sequence (Q7M328 whole entry): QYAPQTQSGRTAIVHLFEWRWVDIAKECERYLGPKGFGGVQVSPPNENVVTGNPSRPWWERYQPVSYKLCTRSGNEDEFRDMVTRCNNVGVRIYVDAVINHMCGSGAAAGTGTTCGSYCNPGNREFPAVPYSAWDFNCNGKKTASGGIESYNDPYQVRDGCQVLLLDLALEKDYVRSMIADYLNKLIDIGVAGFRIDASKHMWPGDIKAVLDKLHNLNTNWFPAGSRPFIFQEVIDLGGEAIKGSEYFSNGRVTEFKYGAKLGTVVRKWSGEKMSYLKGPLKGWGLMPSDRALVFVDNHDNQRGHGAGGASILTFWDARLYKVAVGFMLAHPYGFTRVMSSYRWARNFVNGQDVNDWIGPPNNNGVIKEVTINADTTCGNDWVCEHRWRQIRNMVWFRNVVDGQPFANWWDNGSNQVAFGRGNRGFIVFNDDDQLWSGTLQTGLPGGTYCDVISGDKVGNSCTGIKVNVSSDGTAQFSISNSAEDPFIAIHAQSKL

Alpha-glucosidase = Alpha-glucosidase (Saccharomyces cerevisiae S288c, UniProt P53341+P38158+P07265); assay: Inhibition of yeast Alpha glucosidase 4-nitrophenyl-alpha-D-glucopyranoside incubated for 15 to 20 mins by Bio-rad microplate reader analysis; format: protein assay
PANC-1 [1] = assay: Cytotoxicity against human PANC-1 cells assessed as inhibition of cell growth; format: functional, cell-based
PANC-1 [2] = assay: Induction of ROS production in high glucose-induced human PANC-1 cells assessed as maximum fluorescence intensity at 10 uM incubated for 30 mins DCFDA-staining based flow cytometry analysis (reference value: 15.09); format: functional; conditions: 0.5 h
[3] = Antioxidant activity assessed as DPPH radical scavenging activity measured for 30 mins by spectrophotometric analysis; format: functional
[4] = Inhibition of Alpha glucosidase (unknown origin); set-up: species or system Homo sapiens
Alpha amylase = target: T2, Alpha amylase (Homo sapiens, UniProt P0DUB6); assay: Inhibition of Alpha-amylase (unknown origin); format: protein assay
T2 sequence (P0DUB6 whole entry): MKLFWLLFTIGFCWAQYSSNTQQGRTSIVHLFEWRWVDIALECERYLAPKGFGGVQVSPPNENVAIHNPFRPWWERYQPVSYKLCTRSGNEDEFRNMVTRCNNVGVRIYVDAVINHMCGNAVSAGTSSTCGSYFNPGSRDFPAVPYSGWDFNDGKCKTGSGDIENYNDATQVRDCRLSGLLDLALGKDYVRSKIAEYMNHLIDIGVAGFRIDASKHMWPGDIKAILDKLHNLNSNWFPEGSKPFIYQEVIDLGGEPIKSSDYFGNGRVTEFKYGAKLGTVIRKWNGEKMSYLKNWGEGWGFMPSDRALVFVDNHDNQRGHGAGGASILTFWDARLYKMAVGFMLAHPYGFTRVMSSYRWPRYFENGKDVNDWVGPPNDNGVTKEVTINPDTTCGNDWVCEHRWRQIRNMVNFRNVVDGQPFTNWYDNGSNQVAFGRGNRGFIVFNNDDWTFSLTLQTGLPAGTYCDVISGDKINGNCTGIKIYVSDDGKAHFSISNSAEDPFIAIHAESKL

[5] = Homo sapiens, PANC-1, read-out: IC50

| Compound | IC50 (Alpha-amylase) [µM] | IC50 (Alpha-glucosidase) [µM] | IC50 (PANC-1 [1]; [5]) [µM] | Flu intensity (PANC-1 [2]) | IC50 ([3]; read-out: IC50) [µM] | IC50 (PANC-1 [1]; panc-1) | IC50 [3] | IC50 [4] [µg/mL] | IC50 (Alpha amylase) [µg/mL] |
| --- | --- | --- | --- | --- | --- | --- | --- | --- | --- |
| O=C1S/C(=C\c2ccc(O)cc2)C(=O)N1Cc1cccc([N+](=O)[O-])c1 | 42.9 | 29.28 | 32 | 35829 | 34.9 |  |  |  |  |
| O=C1S/C(=C\c2ccc(Cl)cc2)C(=O)N1Cc1cccc([N+](=O)[O-])c1 | 44.7 | 22.61 | 94.9 |  | 32.2 |  |  |  |  |
| C[C@H]1O[C@H](O[C@H]2[C@H](O)[C@@H](O)[C@@H](O[C@H]3[C@H](O)[C@@H](O)C(O)O[C@@H]3CO)O[C@@H]2CO)[C@H](O)[C@@H](O)[C@@H]1N[C@H]1C=C(CO)[C@@H](O)[C@H](O)[C@H]1O (stereo partly drawn) [ACARBOSE] |  |  |  | 1455 |  | Not Active | Not Active |  |  |
| COc1cc(OC)c(OC)cc1/C=C1\SC(=O)N(Cc2cccc([N+](=O)[O-])c2)C1=O | 30.8 | 54.01 | 203 | 25238 | 30.6 |  |  |  |  |
| CN(C)c1ccc(/C=C2\SC(=O)N(Cc3cccc([N+](=O)[O-])c3)C2=O)cc1 | 81.1 | 16.9 | 194 | 76992 | 211 |  |  |  |  |
| O=C1S/C(=C\c2ccc(-c3ccccc3)cc2)C(=O)N1Cc1cccc([N+](=O)[O-])c1 | 82.2 | 15.37 | 126 | 23092 | 32.6 |  |  |  |  |
| O=C1S/C(=C\c2ccc3c(c2)OCO3)C(=O)N1Cc1cn(-c2ccccc2Cl)nn1 |  |  |  |  |  |  |  | 0.1 (≈ 0.227 µM) |  |
| COc1cc(/C=C2\SC(=O)N(Cc3cccc([N+](=O)[O-])c3)C2=O)cc(OC)c1OC | 39.3 | 39.68 | 195 |  | 68 |  |  |  |  |
| O=C(O)CN1C(=O)S/C(=C\c2cn(-c3ccccc3)nc2-c2ccc([N+](=O)[O-])cc2)C1=O |  |  |  |  |  |  |  |  | 4.08 (≈ 9.06 µM) |
| O=C1S/C(=C\c2c(Cl)cccc2Cl)C(=O)N1Cc1cccc([N+](=O)[O-])c1 | 25.1 | 37.94 | 123 | 25204 | 31.1 |  |  |  |  |
| COc1ccc(/C=C2\SC(=O)N(Cc3cccc([N+](=O)[O-])c3)C2=O)cc1O | 28 | 32.94 | 215 | 72737 | 70.9 |  |  |  |  |
